Values joined by “and” are separate entries in the source; they are usually repeats but may differ in a detail not shown here. Equal values may be shown once.
Molecular target: Transient receptor potential cation channel subfamily V member 1 (Homo sapiens, UniProt Q8NER1)
Test: Antagonist activity at human TRPV1 assessed as inhibition of capsaicin-induced calcium influx in HEK293 cells
Format: functional, cell-based
Conditions: not given

Sequence of Transient receptor potential cation channel subfamily V member 1 (Homo sapiens, UniProt Q8NER1) (Q8NER1 whole entry): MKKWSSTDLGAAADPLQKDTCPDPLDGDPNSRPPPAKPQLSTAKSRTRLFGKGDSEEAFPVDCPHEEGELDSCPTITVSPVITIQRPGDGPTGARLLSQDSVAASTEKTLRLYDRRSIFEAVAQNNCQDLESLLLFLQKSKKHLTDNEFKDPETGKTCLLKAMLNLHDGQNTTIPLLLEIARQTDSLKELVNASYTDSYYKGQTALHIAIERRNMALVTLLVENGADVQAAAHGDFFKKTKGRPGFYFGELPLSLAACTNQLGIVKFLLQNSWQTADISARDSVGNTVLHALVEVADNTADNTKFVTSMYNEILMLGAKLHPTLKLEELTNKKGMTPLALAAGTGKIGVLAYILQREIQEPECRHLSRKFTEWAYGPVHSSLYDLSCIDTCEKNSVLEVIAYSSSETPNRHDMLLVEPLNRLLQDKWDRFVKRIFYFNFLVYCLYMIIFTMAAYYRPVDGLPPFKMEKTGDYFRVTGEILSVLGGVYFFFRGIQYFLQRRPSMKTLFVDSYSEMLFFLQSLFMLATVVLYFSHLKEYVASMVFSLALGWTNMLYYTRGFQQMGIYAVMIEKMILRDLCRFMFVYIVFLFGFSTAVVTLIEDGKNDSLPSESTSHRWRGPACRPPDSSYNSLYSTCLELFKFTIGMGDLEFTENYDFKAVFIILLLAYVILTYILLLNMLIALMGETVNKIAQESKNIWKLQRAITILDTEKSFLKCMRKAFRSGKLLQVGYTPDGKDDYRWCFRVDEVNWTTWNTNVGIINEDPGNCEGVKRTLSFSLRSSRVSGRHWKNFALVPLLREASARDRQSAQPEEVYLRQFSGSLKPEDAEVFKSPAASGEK

Row | IC50 | SMILES
1 | 3.49 µM | O=C(NCCc1ccccc1F)c1ccc(OC(F)(F)F)cc1
2 | > 10 µM | CC(C)(C)c1ccc(/C=C(\C#N)c2ccc(C(F)(F)F)cc2)cc1
3 | 0.776 µM | O=C(NCCc1ccccc1Cl)c1ccc(OC(F)(F)F)cc1
4 | 3.4 µM | COc1ccc2[nH]cc(CCNC(=O)c3ccc(OCC(F)(F)F)nc3)c2c1
5 | > 10 µM | CC(C)(C)c1ccc2[nH]cc(CCNC(=O)c3ccc(OC(F)(F)F)cc3)c2c1
6 | 3.55 µM | COc1ccc2ccn(CCNC(=O)c3ccc(OC(F)(F)F)cc3)c2c1
7 | 0.076 µM | O=C(NCCc1ccc(O)c2ccc(O)cc12)c1ccc(OC(F)(F)F)cc1
8 | 1.73 µM | O=C(NCCc1c[nH]c2ccc(O)cc12)c1ccc(OC(F)(F)F)cc1
9 | 0.023 µM | Cn1c2c(c3cc(O)ccc31)C(CNC(=O)c1ccc(OC(F)(F)F)cc1)CCC2 (configuration not stated)
10 | 4.65 µM | COc1ccc2c(c1)C(CCNC(=O)c1ccc(OC(F)(F)F)cc1)CCC2 (configuration not stated)
11 | 4.23 µM | O=C(NCCc1c[nH]c2ccccc12)c1ccc(C(F)(F)F)cc1
12 | 7.35 µM | O=C(NCCc1c[nH]c2ccccc12)c1ccc(OC(F)(F)F)cc1
13 | 0.2 µM | O=C(NCC1CCCc2[nH]c3ccc(O)cc3c21)c1ccc(OC(F)(F)F)cc1 (configuration not stated)
14 | > 10 µM and 1.93 µM | O=C(NCCc1cccc(Cl)c1)c1ccc(OC(F)(F)F)cc1
15 | 0.4 µM | COc1ccc2[nH]cc(C(C)CNC(=O)c3ccc(OC(F)(F)F)cc3)c2c1 (configuration not stated)
16 | 3.7 µM | O=C(NCCc1ccc(Cl)c(Cl)c1)c1ccc(OC(F)(F)F)cc1
17 | 0.22 µM | CC(C)(C)c1ccc(NC(=O)c2ccc(C(F)(F)F)cc2)cc1
18 | 2.56 µM | O=C(NCCc1ccc(Cl)cc1Cl)c1ccc(OC(F)(F)F)cc1
19 | 0.22 µM | O=C(Nc1ccc(C(F)(F)F)cc1)c1ccc(OC(F)(F)F)cc1
20 | > 10 µM | O=C(Nc1ccc(-c2ccccc2)cc1)c1ccc(OC(F)(F)F)cc1
21 | 0.014 µM | CC(CNC(=O)c1ccc(OC(F)(F)F)cc1)c1ccc(O)c2ccc(O)cc12 (racemic)

Row | IC50 | SMILES
22 | > 10 µM | O=C(Nc1ccc(I)cc1)Nc1ccc(C(F)(F)F)cc1
23 | > 10 µM | COc1ccc2[nH]cc(CCNC(=O)c3ccc(OCCN(C)C)cc3)c2c1
24 | 1.16 µM | COc1ccc2[nH]cc(CCNC(=O)c3ccc(C4CCCCC4)cc3)c2c1
25 | 1.23 µM | O=C(NCCc1ccnc2ccc(O)cc12)c1ccc(OC(F)(F)F)cc1
26 | 1.4 µM | CCC(c1ccccn1)c1c(Cl)c(Cl)cc2[nH]c(=O)c(=O)[nH]c12 (configuration not stated)
27 | > 10 µM | COc1ccc2c(c1)N(CCNC(=O)c1ccc(OC(F)(F)F)cc1)CCC2
28 | > 10 µM | CC(C)(C)c1ccc(-n2nnc(-c3ccc(C(F)(F)F)cc3)n2)cc1
29 | 0.081 µM | CC(Cc1cccc2ccc(O)cc12)NC(=O)c1ccc(OC(F)(F)F)cc1 (configuration not stated)
30 | 1.42 µM | CC(C)(C)c1ccc(-c2nc3cc(OC(F)(F)F)ccc3[nH]2)cc1
31 | > 10 µM | O=C(NCCc1ccnc2ccccc12)c1ccc(OC(F)(F)F)cc1
32 | 0.15 µM | O=C(NCCc1cccc2ccc(O)cc12)c1ccc(OC(F)(F)F)cc1
33 | 3.43 µM | COc1ccc2[nH]cc(CCNC(=O)c3ccc(CC(C)C)cc3)c2c1
34 | 5.4 µM | O=C(NCCC1CCCc2ccccc21)c1ccc(OC(F)(F)F)cc1 (configuration not stated)
35 | 3.72 µM | O=C(NCCc1c[nH]c2ccc(Cl)cc12)c1ccc(OC(F)(F)F)cc1
36 | > 10 µM | CC(C)(C)c1ccc(NC(=O)c2ccc(OCC(F)(F)F)cc2)cc1
37 | 2.62 µM | O=C(NCCc1c[nH]c2ccc(F)cc12)c1ccc(OC(F)(F)F)cc1
38 | > 10 µM | COc1ccc2c(OC)ccc(CCNC(=O)c3ccc(OC(F)(F)F)cc3)c2c1
39 | > 10 µM | O=C(Nc1ccc(I)cc1)c1cccc(C(F)(F)F)c1
40 | 0.38 µM | FC(F)C(F)(F)Oc1ccc(-c2nc3cc(Br)ccc3[nH]2)cc1
41 | > 10 µM | COc1ccc2[nH]cc(CCNC(=O)c3ccc(C(F)(F)F)nc3)c2c1
42 | 0.55 µM | CC(CNC(=O)c1ccc(OC(F)(F)F)cc1)c1c[nH]c2ccc(O)cc12 (configuration not stated)

Row | IC50 | SMILES
43 | 1.4 µM | COc1ccc2cccc(CCNC(=O)c3ccc(OC(F)(F)F)cc3)c2c1
44 | > 10 µM | COc1ccc2[nH]cc(CCNC(=O)c3ccc(-c4ccncc4)cc3)c2c1
45 | 4.6 µM | O=C(NCCN1CCCc2ccccc21)c1ccc(OC(F)(F)F)cc1
46 | 0.79 µM | O=C(Nc1ccc(I)cc1)c1ccc(C(=O)C(F)(F)F)cc1
47 | 1.35 µM | O=C(NCCC1CCCc2ccc(O)cc21)c1ccc(OC(F)(F)F)cc1 (configuration not stated)
48 | 4.97 µM | CC(C)(C)C1CCC(c2nc3ccc(OC(F)(F)F)cc3[nH]2)CC1 (configuration not stated)
49 | > 10 µM | COc1ccc2nccc(CC(C)NC(=O)c3ccc(OC(F)(F)F)cc3)c2c1 (configuration not stated)
50 | > 10 µM | Cn1cc(CCNC(=O)c2ccc(C(F)(F)F)cc2)c2ccccc21
51 | > 10 µM | COc1ccc2nccc(CCNC(=O)c3ccc(OC(F)(F)F)cc3)c2c1
52 | 0.07 µM | CC(C)(C)c1ccc(NC(=O)c2ccc(OC(F)(F)C(F)F)cc2)cc1
53 | 3.94 µM | COc1ccc2[nH]cc(CCNC(=O)c3ccc(-c4ccccc4)nc3)c2c1
54 | > 10 µM | CC(C)(C)c1cc(NC(=O)c2ccc(OC(F)(F)F)cc2)cc(C(C)(C)C)c1
55 | 0.12 µM | CC(C)(C)c1ccc(NC(=O)c2ccc(OC(F)(F)F)cc2)cc1
56 | 6.7 µM | O=C(NCCc1cccc2ccncc12)c1ccc(OC(F)(F)F)cc1
57 | 3.1 µM | COc1ccc2cccc(CC(C)NC(=O)c3ccc(OC(F)(F)F)cc3)c2c1 (configuration not stated)
58 | 1.31 µM | COc1ccc2[nH]cc(CCNC(=O)c3ccc(OC(F)(F)F)cc3)c2c1
59 | 0.96 µM | O=C(NCCN1CCCc2ccc(O)cc21)c1ccc(OC(F)(F)F)cc1
60 | 6 µM | FC(F)(F)c1ccc(-c2ncc(-c3ccc(Br)cc3)[nH]2)cc1
61 | 1.89 µM | COc1ccc2[nH]cc(CCNC(=O)c3ccc(Oc4ccccc4)cc3)c2c1
62 | > 10 µM | O=C(Nc1ccc(C2CCCCC2)cc1)c1ccc(OC(F)(F)F)cc1
63 | 3.28 µM | Cc1[nH]c2ccc(O)cc2c1C(C)CNC(=O)c1ccc(OC(F)(F)F)cc1 (configuration not stated)

Row | IC50 | SMILES
64 | > 10 µM | CC(C)(C)c1ccc(-c2cc3cc(C(C)(C)C)ccc3[nH]2)cc1
65 | > 10 µM | O=C(Nc1ccc(C(F)(F)F)cc1)c1ccc(I)cc1
66 | 2.09 µM | COc1ccc2[nH]cc(CCNC(=O)c3ccc(C(F)(F)F)cc3)c2c1
67 | 0.28 µM | O=C(Nc1ccc(I)cc1)c1ccc(OC(F)(F)F)cc1
68 | 0.74 µM | CC(Cc1ccnc2ccc(O)cc12)NC(=O)c1ccc(OC(F)(F)F)cc1 (configuration not stated)
69 | 0.253 µM | CC(C)(C)c1ccc(NC(=O)c2ccc(SC(F)(F)F)cc2)cc1
70 | 0.37 µM | COc1ccc2[nH]cc(CCNC(=O)c3ccc(-c4ccccc4)cc3)c2c1
71 | > 10 µM | CN(C(=O)c1ccc(OC(F)(F)F)cc1)c1ccc(C(C)(C)C)cc1
72 | > 10 µM | CS(=O)(=O)c1ccc(C(=O)Nc2ccc(I)cc2)cc1
73 | 2.6 µM | O=C(NCCc1cccc2ccccc12)c1ccc(OC(F)(F)F)cc1
74 | 0.49 µM | COc1ccc2c(c1)c1c(n2C)CCCC1CNC(=O)c1ccc(OC(F)(F)F)cc1 (configuration not stated)
75 | 0.205 µM | O=C(NCCc1c(Cl)cccc1Cl)c1ccc(OC(F)(F)F)cc1
76 | 7.3 µM | O=C(NCCn1ccc2ccccc21)c1ccc(OC(F)(F)F)cc1
77 | > 10 µM | CC(=O)c1ccc(C(=O)Nc2ccc(I)cc2)cc1
78 | 5.07 µM | COc1ccc2[nH]c(C)c(C(C)CNC(=O)c3ccc(OC(F)(F)F)cc3)c2c1 (configuration not stated)
79 | 0.33 µM | O=C(Nc1ccc(I)cc1)c1ccc(C(F)(F)F)cc1
80 | 0.477 µM | CC(C)(C)c1ccc2[nH]c(-c3ccc(OC(F)(F)C(F)F)cc3)nc2c1
81 | 0.21 µM | O=C(Nc1ccc2c(c1)CCC2)c1ccc(OC(F)(F)F)cc1
82 | 1.64 µM | COc1ccc2[nH]cc(CCNC(=O)c3ccc(OC(F)(F)C(F)F)cc3)c2c1
83 | > 10 µM | CC(C)(C)c1ccc(CC(=O)c2ccc(C(F)(F)F)cc2)cc1

Row | SMILES | IC50
84 | O=C(Nc1ccc(I)cc1)c1ccccc1C(F)(F)F | > 10 µM
85 | CC(C)(C)c1ccc(C(N)C(=O)c2ccc(OC(F)(F)F)cc2)cc1 (configuration not stated) | > 10 µM

Same assay, conditions: read-out: pA2 (converted)

Row | Kb [µM] | SMILES
86 | 0.145 | COc1ccc2[nH]cc(C(C)CNC(=O)c3ccc(OC(F)(F)F)cc3)c2c1 (configuration not stated)

Molecular target: Transient receptor potential cation channel subfamily V member 1 (Rattus norvegicus, UniProt O35433)
Test: Antagonist activity at rat TRPV1 assessed as inhibition of capsaicin-induced calcium mobilization
Format: functional
Conditions: not given

Sequence of Transient receptor potential cation channel subfamily V member 1 (Rattus norvegicus, UniProt O35433) (O35433 whole entry): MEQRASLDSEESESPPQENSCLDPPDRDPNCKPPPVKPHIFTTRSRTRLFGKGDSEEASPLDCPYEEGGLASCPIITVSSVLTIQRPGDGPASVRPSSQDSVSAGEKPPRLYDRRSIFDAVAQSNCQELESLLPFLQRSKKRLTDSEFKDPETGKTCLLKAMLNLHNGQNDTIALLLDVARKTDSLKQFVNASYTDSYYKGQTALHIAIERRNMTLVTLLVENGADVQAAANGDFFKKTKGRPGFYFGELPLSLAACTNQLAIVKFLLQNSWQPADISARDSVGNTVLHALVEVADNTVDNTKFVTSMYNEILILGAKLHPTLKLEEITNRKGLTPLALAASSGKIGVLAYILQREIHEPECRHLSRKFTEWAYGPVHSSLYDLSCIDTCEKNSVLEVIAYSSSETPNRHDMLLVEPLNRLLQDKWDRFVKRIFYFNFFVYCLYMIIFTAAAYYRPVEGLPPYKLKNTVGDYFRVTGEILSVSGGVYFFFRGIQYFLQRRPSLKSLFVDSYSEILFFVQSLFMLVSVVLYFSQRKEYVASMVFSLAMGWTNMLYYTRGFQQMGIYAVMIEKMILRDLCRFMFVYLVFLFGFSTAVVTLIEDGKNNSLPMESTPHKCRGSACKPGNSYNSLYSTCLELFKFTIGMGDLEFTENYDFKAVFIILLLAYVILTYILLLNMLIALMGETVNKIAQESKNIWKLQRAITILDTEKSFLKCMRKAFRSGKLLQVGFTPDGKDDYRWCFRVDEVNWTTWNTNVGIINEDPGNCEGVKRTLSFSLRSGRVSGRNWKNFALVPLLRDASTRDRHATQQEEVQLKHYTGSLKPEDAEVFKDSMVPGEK

Row | IC50 [µM] | SMILES
87 | 0.41 | Cn1c2c(c3cc(O)ccc31)C(CNC(=O)c1ccc(OC(F)(F)F)cc1)CCC2 (configuration not stated)
88 | 5.2 | COc1ccc2[nH]cc(C(C)CNC(=O)c3ccc(OC(F)(F)F)cc3)c2c1 (configuration not stated)
89 | 0.044 | CC(CNC(=O)c1ccc(OC(F)(F)F)cc1)c1ccc(O)c2ccc(O)cc12 (racemic)
90 | 0.26 | CC(C)(C)c1ccc(NC(=O)c2ccc(OC(F)(F)C(F)F)cc2)cc1

Species: Mus musculus
Test: Effect on capsaicin-induced licking in mouse
Format: functional
Conditions: not given

Row | SMILES | ED50 [mg/kg]
91 | CC(C)(C)c1ccc(NC(=O)c2ccc(OC(F)(F)C(F)F)cc2)cc1 | 3.8

Species: Mus musculus
Test: Effect on capsaicin-induced hypothermia in mouse
Format: functional
Conditions: not given

Row | SMILES | ED50 [mg/kg]
92 | CC(C)(C)c1ccc(NC(=O)c2ccc(OC(F)(F)C(F)F)cc2)cc1 | 4.5

Species: Rattus norvegicus
Test: Effect on capsaicin-induced hypothermia in rat
Format: functional
Conditions: not given

Row | SMILES | ED50 [mg/kg]
93 | CC(C)(C)c1ccc(NC(=O)c2ccc(OC(F)(F)C(F)F)cc2)cc1 | 4.2

System: Rattus norvegicus
Test: Reduction of rectal temperature in rat CCI model at 100 mg/kg, ip
Format: functional
Conditions: route intraperitoneal

Row | SMILES | inhibition in vivo at 100 mg/kg [%]
94 | CC(C)(C)c1ccc(NC(=O)c2ccc(OC(F)(F)C(F)F)cc2)cc1 | 59

System: Mus musculus
Test: Reduction of rectal temperature in mouse CCI model at 100 mg/kg, ip
Format: functional
Conditions: route intraperitoneal

Row | SMILES | inhibition in vivo at 100 mg/kg [%]
95 | CC(C)(C)c1ccc(NC(=O)c2ccc(OC(F)(F)C(F)F)cc2)cc1 | 59

System: Rattus norvegicus
Test: Effect on carrageenan-induced thermal hyperalgesia in rat at 30 mg/kg, ip
Format: functional
Conditions: route intraperitoneal

Row | SMILES | inhibition in vivo at 30 mg/kg [%]
96 | CC(C)(C)c1ccc(NC(=O)c2ccc(OC(F)(F)C(F)F)cc2)cc1 | 52

System: Mus musculus
Test: Effect on carrageenan-induced thermal hyperalgesia in mouse at 30 mg/kg, ip
Format: functional
Conditions: route intraperitoneal

Row | SMILES | inhibition in vivo at 30 mg/kg [%]
97 | CC(C)(C)c1ccc(NC(=O)c2ccc(OC(F)(F)C(F)F)cc2)cc1 | 52

System: not listed separately
Test: Half life in iv dosed rat
Format: ADME, organism-based
Conditions: in vivo

Row | half-life [h] | SMILES
98 | 2.1 | Cn1c2c(c3cc(O)ccc31)C(CNC(=O)c1ccc(OC(F)(F)F)cc1)CCC2 (configuration not stated)

System: not listed separately
Test: Oral bioavailability in rat administered through PEG400
Format: ADME, organism-based
Conditions: in vivo

Row | bioavailability [%] | SMILES
99 | 30.2 | Cn1c2c(c3cc(O)ccc31)C(CNC(=O)c1ccc(OC(F)(F)F)cc1)CCC2 (configuration not stated)

System: not listed separately
Test: Half life in po dosed rat administered through PEG400
Format: ADME, organism-based
Conditions: in vivo

Row | half-life [h] | SMILES
100 | 2.1 | Cn1c2c(c3cc(O)ccc31)C(CNC(=O)c1ccc(OC(F)(F)F)cc1)CCC2 (configuration not stated)

System: not listed separately
Test: Oral bioavailability in rat administered through 0.1% MC solution
Format: ADME, organism-based
Conditions: in vivo

Row | bioavailability [%] | SMILES
101 | 0.7 | Cn1c2c(c3cc(O)ccc31)C(CNC(=O)c1ccc(OC(F)(F)F)cc1)CCC2 (configuration not stated)

System: not listed separately
Test: Half life in po dosed rat administered through 0.1% MC solution
Format: ADME, organism-based
Conditions: in vivo

Row | half-life [h] | SMILES
102 | 1.2 | Cn1c2c(c3cc(O)ccc31)C(CNC(=O)c1ccc(OC(F)(F)F)cc1)CCC2 (configuration not stated)
